Data reported in patent US9949483B2, “Pesticidally active heterocyclic derivatives with sulphur containing substituents” (Syngenta Participations AG, priority 2014, dated 2018).

Experiments:
Format in all cases: in vivo
[1] = test system: Mysus persicae (Green Peach Aphid); assay: Example B4: Activity against Mysus persicae, sunflower leaf discs sprayed; conditions: Myzus persicae, foliar, 144 h, application rate of 200 ppm, aphid population of mixed ages, 6 days after infestation
Protocol: Sunflower leaf discs were placed on agar in a 24-well microtiter plate and sprayed with aqueous test solutions prepared from 10′000 ppm DMSO stock solutions. After drying, the leaf discs were infested with an aphid population of mixed ages. The samples were assessed for mortality 6 days after infestation.

[2] = test system: Diabrotica balteata (Corn Root Worm); assay: Example B2: Activity against Diabrotica balteata, maize sprouts sprayed; conditions: 96 h, application rate of 200 ppm, L2 larvae, 4 days after infestation
Protocol: Maize sprouts, placed on an agar layer in 24-well microtiter plates were treated with aqueous test solutions prepared from 10′000 ppm DMSO stock solutions by spraying. After drying, the plates were infested with L2 larvae (6 to 10 per well). The samples were assessed for mortality 4 days after infestation.

[3] = test system: Plutella xylostella (Diamond Back Moth); assay: Example B7: Activity against Plutella xylostella, artificial diet; conditions: 120 h, application rate of 200 ppm, L2 larvae, 5 days after infestation, read-out: effect in at least one of the two categories (mortality or growth inhibition)
Protocol: 24-well microtiter plates with artificial diet were treated with aqueous test solutions prepared from 10′000 ppm DMSO stock solutions by pipetting. After drying, the plates were infested with L2 larvae (10 to 15 per well). The samples were assessed for mortality and growth inhibition in comparison to untreated samples 5 days after infestation.

[4] = test system: Aedes aegypti (Yellow Fever Mosquito); assay: whole plant or invertebrate; conditions: 48 h, test rate of 5 ppm, L2 larvae, incubation period of 2 days, read-out: effect in at least one of the two categories (mortality or growth inhibition)
Protocol: 10 to 15 Aedes larvae (L2) together with a nutrition mixture were placed in 96-well microtiter plates. Test compounds were pipetted into the wells. After an incubation period of 2 days insects were assessed for mortality and growth inhibition.

[5] = test system: Spodoptera littoralis (Egyptian Cotton Leaf Worm); assay: Example B9: Activity against Spodoptera littoralis, lettuce grown on treated agar; conditions: 144 h, test rate of 12.5 ppm, compound mixed with agar, taken up by lettuce roots, 6 days after infestation, read-out: effect in at least one of the three categories (mortality, anti-feedancy, or growth inhibition)
From the text: Test compounds were applied by pipette from 10′000 ppm DMSO stock solutions into 24-well plates and mixed with agar. Lettuce seeds were placed on the agar and the multi well plate was closed by another plate which contains also agar. After 7 days the roots have absorbed the compound and the lettuce has grown into the lid plate. The lettuce leafs were now cut off into the lid plate. Spodoptera eggs were pipetted through a plastic stencil on a humid gel blotting paper and the plate closed with it. The samples were assessed for mortality, anti-feedant effect and growth inhibition in comparison to untreated samples 6 days after infestation.

[6] = test system: Bemisia tabaci (Cotton White Fly); assay: Example B1: Activity against Bemisia tabaci, cotton leaf discs sprayed; conditions: foliar, 144 h, application rate of 200 ppm, adult white flies, 6 days after incubation
Protocol: Cotton leaf discs were placed on agar in 24-well microtiter plates and sprayed with aqueous test solutions prepared from 10′000 ppm DMSO stock solutions. After drying the leaf discs were infested with adult white flies. The samples were checked for mortality 6 days after incubation.

[7] = test system: Tetranychus urticae (Two-Spotted Spider Mite); assay: Example B10: Activity against Tetranychus urticae, feeding/contact activity; conditions: 192 h
Protocol: Bean leaf discs on agar in 24-well microtiter plates were sprayed with aqueous test solutions prepared from 10′000 ppm DMSO stock solutions. After drying the leaf discs were infested with a mite population of mixed ages. The samples were assessed for mortality on mixed population (mobile stages) 8 days after infestation.

[8] = test system: Euschistus heros (Neotropical Brown Stink Bug); assay: Example B3: Activity against Euschistus heros, soybean leaf sprayed; conditions: 120 h, application rate of 200 ppm, N-2 nymphs, 5 days after infestation, read-out: effect in at least one of the two categories (mortality or growth inhibition)
Protocol: Soybean leaf on agar in 24-well microtiter plates were sprayed with aqueous test solutions prepared from 10′000 ppm DMSO stock solutions. After drying the leaf were infested with N-2 nymphs. The samples were assessed for growth inhibition in comparison to untreated samples 5 days after infestation.

[9] = test system: Spodoptera littoralis (Egyptian Cotton Leaf Worm); assay: Example B8: Activity against Spodoptera littoralis, cotton leaf discs sprayed; conditions: foliar, 72 h, application rate of 200 ppm, L1 larvae, 3 days after infestation, read-out: control (at least one of mortality, anti-feedant effect, and growth inhibition)
Protocol: Cotton leaf discs were placed on agar in 24-well microtiter plates and sprayed with aqueous test solutions prepared from 10′000 ppm DMSO stock solutions. After drying the leaf discs were infested with five L1 larvae. The samples were assessed for mortality, anti-feedant effect, and growth inhibition in comparison to untreated samples 3 days after infestation. Control of Spodoptera littoralis by a test sample is when at least one of mortality, anti-feedant effect, and growth inhibition is higher than the untreated sample.

[10] = test system: Mysus persicae (Green Peach Aphid); assay: Example B6: Activity against Mysus persicae, sucrose solution under Parafilm; conditions: Myzus persicae, 120 h; test rate of 12 ppm; mixed with sucrose solution; 5 days after infestation
Protocol: Test compounds from 10′000 ppm DMSO stock solutions were applied by pipette into 24-well microtiter plates and mixed with sucrose solution. The plates were closed with a stretched Parafilm. A plastic stencil with 24 holes was placed onto the plate and infested pea seedlings were placed directly on the Parafilm. The infested plate was closed with a gel blotting paper and another plastic stencil and then turned upside down. The samples were assessed for mortality 5 days after infestation.

[11] = test system: Mysus persicae (Green Peach Aphid); assay: Example B5: Activity against Mysus persicae, roots of pea seedlings in test solutions; conditions: Myzus persicae, 144 h, test rate of 24 ppm, 6 days
Protocol: Roots of pea seedlings infested with an aphid population of mixed ages were placed directly in the aqueous test solutions prepared from 10′000 DMSO stock solutions. The samples were assessed for mortality 6 days after placing seedlings in test solutions.

[12] = test system: Thrips tabaci (Onion Thrips); assay: Example B11: Activity against Thrips tabaci, feeding/contact activity; conditions: 144 h, application rate of 200 ppm, thrips population of mixed ages, 6 days after infestation
Protocol: Sunflower leaf discs were placed on agar in 24-well microtiter plates and sprayed with aqueous test solutions prepared from 10′000 ppm DMSO stock solutions. After drying the leaf discs were infested with a thrips population of mixed ages. The samples were assessed for mortality 6 days after infestation.

CCSc1ccccc1-n1cc2cnc(C(F)(F)F)cc2n1 [Compound P1, 2-(2-ethylsulfanylphenyl)-6-(trifluoromethyl)pyrazolo[4,3-c]pyridine]
≥ 80%: mortality at 200 ppm [1] | mortality at 200 ppm [2] | percent effect (mortality or growth inhibition) at 200 ppm [3] | percent effect (mortality or growth inhibition) at 5 ppm [4] | percent control (mortality, anti-feedancy or growth inhibition) at 12.5 ppm [5] | mortality at 200 ppm [6] | mortality at 200 ppm [7] | percent effect (mortality or growth inhibition) at 200 ppm [8] | mortality at 200 ppm [9] | mortality at 12 ppm [10]

CCS(=O)(=O)c1ccccc1-n1cc2cnc(C(F)(F)F)cc2n1 [Compound P2, 2-(2-ethylsulfonylphenyl)-6-(trifluoromethyl)pyrazolo[4,3-c]pyridine]
≥ 80%: mortality at 200 ppm [1] | mortality at 200 ppm [2] | percent effect (mortality or growth inhibition) at 200 ppm [3] | mortality at 200 ppm [6] | mortality at 200 ppm [9] | mortality at 24 ppm [11]

CCSc1cccnc1-n1cc2cnc(C(F)(F)F)cc2n1 [Compound P3, 2-(3-ethylsulfanyl-2-pyridyl)-6-(trifluoromethyl)pyrazolo[4,3-c]pyridine]
≥ 80%: mortality at 200 ppm [1] | mortality at 200 ppm [2] | percent effect (mortality or growth inhibition) at 200 ppm [3] | percent control (mortality, anti-feedancy or growth inhibition) at 12.5 ppm [5] | percent effect (mortality or growth inhibition) at 200 ppm [8] | mortality at 200 ppm [9] | mortality at 12 ppm [10]

CCS(=O)(=O)c1cccnc1-n1cc2cnc(C(F)(F)F)cc2n1 [Compound P4, 2-(3-ethylsulfonyl-2-pyridyl)-6-(trifluoromethyl)pyrazolo[4,3-c]pyridine]
≥ 80%: mortality at 200 ppm [1] | mortality at 200 ppm [2] | percent effect (mortality or growth inhibition) at 200 ppm [3] | percent control (mortality, anti-feedancy or growth inhibition) at 12.5 ppm [5] | percent effect (mortality or growth inhibition) at 200 ppm [8] | mortality at 200 ppm [9] | mortality at 24 ppm [11]

CCS(=O)(=O)c1cccnc1-n1cc2cnc(Br)cc2n1 [Compound P6, 6-bromo-2-(3-ethylsulfonyl-2-pyridyl)pyrazolo[4,3-c]pyridine]
≥ 80%: mortality at 200 ppm [1] | mortality at 200 ppm [2]

CCS(=O)(=O)c1cc(C(F)(F)F)cnc1-n1cc2cnc(C(F)(F)F)cc2n1 [Compound P7, 2-[3-ethylsulfonyl-5-(trifluoromethyl)-2-pyridyl]-6-(trifluoromethyl)pyrazolo[4,3-c]pyridine]
≥ 80%: mortality at 200 ppm [1] | mortality at 200 ppm [2] | percent effect (mortality or growth inhibition) at 200 ppm [3] | percent effect (mortality or growth inhibition) at 5 ppm [4] | percent control (mortality, anti-feedancy or growth inhibition) at 12.5 ppm [5] | percent effect (mortality or growth inhibition) at 200 ppm [8] | mortality at 200 ppm [9]

CCS(=O)(=O)c1cc(Br)cnc1-n1cc2cnc(C(F)(F)F)cc2n1 [Compound P8, 2-(5-bromo-3-ethylsulfonyl-2-pyridyl)-6-(trifluoromethyl)pyrazolo[4,3-c]pyridine]
≥ 80%: mortality at 200 ppm [1] | mortality at 200 ppm [2] | percent effect (mortality or growth inhibition) at 200 ppm [3] | percent effect (mortality or growth inhibition) at 200 ppm [8] | mortality at 200 ppm [9]

CCS(=O)(=O)c1cc(C2CC2)cnc1-n1cc2cnc(C(F)(F)F)cc2n1 [Compound P9, 2-(5-cyclopropyl-3-ethylsulfonyl-2-pyridyl)-6-(trifluoromethyl)pyrazolo[4,3-c]pyridine]
≥ 80%: mortality at 200 ppm [2] | mortality at 200 ppm [9]

CCS(=O)(=O)c1cc(-c2ccccc2)cnc1-n1cc2cnc(C(F)(F)F)cc2n1 [Compound P10, 2-(3-ethylsulfonyl-5-phenyl-2-pyridyl)-6-(trifluoromethyl)pyrazolo[4,3-c]pyridine]
≥ 80%: mortality at 200 ppm [1] | mortality at 200 ppm [2] | percent effect (mortality or growth inhibition) at 200 ppm [3] | mortality at 200 ppm [12] | percent effect (mortality or growth inhibition) at 200 ppm [8] | mortality at 200 ppm [9]

CCS(=O)(=O)c1cccnc1-n1cc2nnc(C(F)(F)F)cc2n1 [PP1, 2-(3-ethylsulfonyl-2-pyridyl)-6-(trifluoromethyl)pyrazolo[4,3-c]pyridazine]
≥ 80%: mortality at 200 ppm [1] | mortality at 200 ppm [2] | percent effect (mortality or growth inhibition) at 200 ppm [3] | percent effect (mortality or growth inhibition) at 200 ppm [8] | mortality at 200 ppm [9]
